Results reported in ChEMBL document CHEMBL5518233, “Design and Synthesis of 3-(2H-Chromen-3-yl)-5-aryl-1,2,4-oxadiazole Derivatives as Novel Toll-like Receptor 2/1 Agonists That Inhibit Lung Cancer In Vitro and In Vivo” (J Med Chem, 2024).
Where a SMILES comes first, the peptide text is derived from it. The star is where a group is joined. X1 = CCCCCCCCCCCCCCCC(=O)OCC(C*)OC(=O)CCCCCCCCCCCCCCC; Palmitoyl = CCCCCCCCCCCCCCCC(=O)*

Columns and labels:
Toll-like receptor 1/2 [1] = target: T1, Toll-like receptor 1/2 (Homo sapiens, UniProt O60603+Q15399); experiment: Agonist activity at human TLR2/TLR1 transfected in HEK293T cells incubated for 24 hrs by dual luciferase reporter gene assay; type: cell-based
T1 sequence (O60603 whole entry): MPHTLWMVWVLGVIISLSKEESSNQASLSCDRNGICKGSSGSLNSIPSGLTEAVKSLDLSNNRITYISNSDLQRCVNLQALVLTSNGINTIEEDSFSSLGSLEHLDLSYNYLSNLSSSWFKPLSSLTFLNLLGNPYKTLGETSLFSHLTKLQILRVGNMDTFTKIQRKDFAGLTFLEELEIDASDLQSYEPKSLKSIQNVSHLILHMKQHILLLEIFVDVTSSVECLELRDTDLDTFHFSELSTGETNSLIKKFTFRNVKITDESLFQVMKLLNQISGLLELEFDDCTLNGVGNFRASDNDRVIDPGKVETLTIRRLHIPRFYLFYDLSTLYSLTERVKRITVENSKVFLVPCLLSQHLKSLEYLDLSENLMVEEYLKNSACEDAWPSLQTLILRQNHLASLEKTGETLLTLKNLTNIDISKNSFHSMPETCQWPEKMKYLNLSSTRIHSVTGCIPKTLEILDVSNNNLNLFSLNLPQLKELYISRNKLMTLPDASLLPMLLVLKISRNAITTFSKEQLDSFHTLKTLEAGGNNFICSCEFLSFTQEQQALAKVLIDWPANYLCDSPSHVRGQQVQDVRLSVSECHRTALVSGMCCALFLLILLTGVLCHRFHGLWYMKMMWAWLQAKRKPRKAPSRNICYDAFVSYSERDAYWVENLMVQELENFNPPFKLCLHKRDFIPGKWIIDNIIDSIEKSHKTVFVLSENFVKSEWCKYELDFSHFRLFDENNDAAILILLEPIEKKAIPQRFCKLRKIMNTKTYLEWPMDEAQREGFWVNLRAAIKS
T1 sequence (Q15399 whole entry): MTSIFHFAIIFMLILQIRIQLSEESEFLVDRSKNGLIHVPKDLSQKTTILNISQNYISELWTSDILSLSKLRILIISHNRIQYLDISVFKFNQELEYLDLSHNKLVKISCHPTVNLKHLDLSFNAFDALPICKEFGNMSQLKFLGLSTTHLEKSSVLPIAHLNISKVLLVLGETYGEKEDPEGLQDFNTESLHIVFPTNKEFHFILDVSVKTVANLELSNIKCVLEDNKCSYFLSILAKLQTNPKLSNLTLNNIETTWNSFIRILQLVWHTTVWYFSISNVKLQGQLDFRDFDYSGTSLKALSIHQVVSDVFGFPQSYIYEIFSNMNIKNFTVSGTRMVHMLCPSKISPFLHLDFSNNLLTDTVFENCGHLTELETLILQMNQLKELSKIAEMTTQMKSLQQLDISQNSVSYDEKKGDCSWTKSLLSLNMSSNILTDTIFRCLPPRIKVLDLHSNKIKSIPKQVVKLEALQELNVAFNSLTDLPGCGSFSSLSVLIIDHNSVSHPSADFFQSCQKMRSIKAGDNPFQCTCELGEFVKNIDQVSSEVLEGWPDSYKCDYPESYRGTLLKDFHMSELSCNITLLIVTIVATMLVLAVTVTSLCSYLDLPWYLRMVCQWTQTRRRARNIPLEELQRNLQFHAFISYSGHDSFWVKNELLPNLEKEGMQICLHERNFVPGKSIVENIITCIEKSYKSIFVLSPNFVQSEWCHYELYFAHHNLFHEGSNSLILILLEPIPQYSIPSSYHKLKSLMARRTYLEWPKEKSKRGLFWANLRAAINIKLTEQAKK

[2] = Antitumor activity against mouse Lewis lung carcinoma cell line xenografted with C57BL/6J mouse assessed as tumor growth inhibition at 5 mg/kg,ip administrated every 2 days for 21 days relative to control; type: functional; details: 504 h, time 21 day, read-out: TGI
Toll-like receptor 1/2 [3] = target: T1, Toll-like receptor 1/2; experiment: Agonist activity at human TLR2/TLR1 transfected in HEK293T cells assessed as relative light unit at 100 ng/ml incubated for 24 hrs by dual luciferase reporter gene assay; type: cell-based; details: filed as agonist
A549 = experiment: Antitumor activity against human A549 cells xenografted with BALB/c mouse assessed as tumor growth inhibition at 5 mg/kg,ip administrated every 2 days for 30 days relative to control; type: functional; details: A549, 720 h, time 30 day, read-out: TGI

Row | SMILES | EC50 (Toll-like receptor 1/2 [1]) [nM] | inhibition in vivo at 5 mg/kg [2] [%] | Activity (Toll-like receptor 1/2 [3]) [RLU] | inhibition in vivo at 5 mg/kg (A549) [%]
1 | CNc1ccc([N+](=O)[O-])cc1-n1cnc(-c2ccc(C(F)(F)F)cc2O)c1 | 35 | 63.5 | – | –
2 | O=[N+]([O-])c1ccc(F)c(-c2nc(C3=Cc4ccccc4OC3)no2)c1 | 30.1 | – | – | –
3 | CCCCCCCCCCCCCCCC(=O)N[C@@H](CSCC(COC(=O)CCCCCCCCCCCCCCC)OC(=O)CCCCCCCCCCCCCCC)C(=O)N[C@@H](CO)C(=O)N[C@@H](CCCCN)C(=O)N[C@@H](CCCCN)C(=O)N[C@@H](CCCCN)C(=O)N[C@@H](CCCCN)C(=O)O (stereo partly specified) (Palmitoyl-C(X1)SKKKK-OH) | – | – | 7.95 | –
4 | O=c1[nH]cc(F)c(=O)[nH]1 [FLUOROURACIL] | – | 79.4 | – | 77.5
